Test results reported in ChEMBL document CHEMBL4507302, “Data for DCP probe TP-020” (2021).

Columns and labels:
[1] = system: Mast/stem cell growth factor receptor Kit (Homo sapiens), P10721 [D816V]; conditions: Compound concentration 1000.0 nM
[2] = target: Cyclin-dependent kinase 11B (Homo sapiens) (UniProt P21127); conditions: Compound concentration 1000.0 nM
[3] = target: Mitogen-activated protein kinase 14 (Homo sapiens) (UniProt Q16539); conditions: Compound concentration 1000.0 nM
[4] = target: Tyrosine-protein kinase JAK1 (Homo sapiens) (UniProt P23458); conditions: Compound concentration 1000.0 nM
[5] = target: Epithelial discoidin domain-containing receptor 1 (Homo sapiens) (UniProt Q08345); conditions: Compound concentration 1000.0 nM
[6] = target: Rhodopsin kinase GRK7 (Homo sapiens) (UniProt Q8WTQ7); conditions: Compound concentration 1000.0 nM
[7] = target: Mitogen-activated protein kinase kinase kinase kinase 4 (Homo sapiens) (UniProt O95819); conditions: Compound concentration 1000.0 nM
[8] = target: Ephrin type-B receptor 6 (Homo sapiens) (UniProt O15197); conditions: Compound concentration 1000.0 nM
[9] = target: Proto-oncogene tyrosine-protein kinase ROS (Homo sapiens) (UniProt P08922); conditions: Compound concentration 1000.0 nM
[10] = target: GABA-A receptor; anion channel (Rattus norvegicus) (UniProt O09028+P15431+P18506+P18508+P19969+P20236+P23574+P23576+P28471+P28473+P30191+P62813+P63079+P63138+Q91ZM7+Q9ES14); conditions: Compound concentration 10.0 uM
[11] = target: Fibroblast growth factor receptor 2 (Homo sapiens) (UniProt P21802); conditions: Compound concentration 1000.0 nM
Fibroblast growth factor receptor 2 (Homo sapiens), sequence (P21802 22-821 limits assumed): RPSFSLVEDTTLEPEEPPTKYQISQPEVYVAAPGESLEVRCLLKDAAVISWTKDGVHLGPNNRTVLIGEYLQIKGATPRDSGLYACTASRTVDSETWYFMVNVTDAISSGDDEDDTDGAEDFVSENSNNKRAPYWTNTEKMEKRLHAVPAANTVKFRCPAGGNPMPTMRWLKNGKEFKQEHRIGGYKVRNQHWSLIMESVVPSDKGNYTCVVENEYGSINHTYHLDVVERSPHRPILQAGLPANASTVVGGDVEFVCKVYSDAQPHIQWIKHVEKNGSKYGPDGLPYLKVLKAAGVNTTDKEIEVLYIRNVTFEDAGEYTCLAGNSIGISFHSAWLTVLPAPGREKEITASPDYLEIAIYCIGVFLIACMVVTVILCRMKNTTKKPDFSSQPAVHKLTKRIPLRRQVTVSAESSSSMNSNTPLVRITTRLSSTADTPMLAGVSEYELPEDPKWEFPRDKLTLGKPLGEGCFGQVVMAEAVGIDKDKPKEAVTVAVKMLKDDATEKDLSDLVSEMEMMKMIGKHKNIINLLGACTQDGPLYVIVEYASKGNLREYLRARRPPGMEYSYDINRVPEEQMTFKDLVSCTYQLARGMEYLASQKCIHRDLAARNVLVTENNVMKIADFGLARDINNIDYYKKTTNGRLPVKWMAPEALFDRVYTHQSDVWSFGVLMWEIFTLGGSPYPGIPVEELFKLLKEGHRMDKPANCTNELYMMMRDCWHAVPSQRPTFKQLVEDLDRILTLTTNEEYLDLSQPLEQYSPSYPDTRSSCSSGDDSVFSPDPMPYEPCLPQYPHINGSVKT

[12] = target: Ephrin type-A receptor 1 (Homo sapiens) (UniProt P21709); conditions: Compound concentration 1000.0 nM
[13] = target: Tyrosine-protein kinase Fgr (Homo sapiens) (UniProt P09769); conditions: Compound concentration 1000.0 nM
[14] = system: Hepatocyte growth factor receptor (Homo sapiens), P08581 [M1250T]; conditions: Compound concentration 1000.0 nM
[15] = target: Myotonin-protein kinase (Homo sapiens) (UniProt Q09013); conditions: Compound concentration 1000.0 nM
[16] = target: Mitogen-activated protein kinase kinase kinase 7 (Homo sapiens) (UniProt O43318); conditions: Compound concentration 1000.0 nM
[17] = target: Vascular endothelial growth factor receptor 2 (Homo sapiens) (UniProt P35968); conditions: Compound concentration 1000.0 nM
[18] = target: Testis-specific serine/threonine-protein kinase 3 (Homo sapiens) (UniProt Q96PN8); conditions: Compound concentration 1000.0 nM
Testis-specific serine/threonine-protein kinase 3 (Homo sapiens), sequence (Q96PN8 whole entry): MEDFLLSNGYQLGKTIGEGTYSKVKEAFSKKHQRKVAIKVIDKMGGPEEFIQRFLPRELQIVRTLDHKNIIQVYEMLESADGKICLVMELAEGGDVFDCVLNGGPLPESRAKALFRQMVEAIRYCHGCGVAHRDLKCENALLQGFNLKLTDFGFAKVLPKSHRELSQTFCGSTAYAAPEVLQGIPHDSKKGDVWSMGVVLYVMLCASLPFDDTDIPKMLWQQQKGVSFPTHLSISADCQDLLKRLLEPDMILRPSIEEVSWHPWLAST

[19] = target: Protein kinase C delta type (Homo sapiens) (UniProt Q05655); conditions: Compound concentration 1000.0 nM
[20] = target: Platelet-derived growth factor receptor beta (Homo sapiens) (UniProt P09619); conditions: Compound concentration 1000.0 nM
[21] = system: Fibroblast growth factor receptor 3 (Homo sapiens), P22607 [G697C]; conditions: Compound concentration 1000.0 nM
[22] = target: Phosphatidylinositol 4,5-bisphosphate 3-kinase catalytic subunit alpha isoform (Homo sapiens) (UniProt P42336); conditions: Compound concentration 1000.0 nM
[23] = system: Serine/threonine-protein kinase B-raf (Homo sapiens), P15056 [V600E]; conditions: Compound concentration 1000.0 nM
[24] = target: Mitogen-activated protein kinase kinase kinase 11 (Homo sapiens) (UniProt Q16584); conditions: Compound concentration 1000.0 nM
[25] = target: Histamine H3 receptor (Homo sapiens) (UniProt Q9Y5N1); conditions: Compound concentration 10.0 uM
[26] = target: Ephrin type-A receptor 5 (Homo sapiens) (UniProt P54756); conditions: Compound concentration 1000.0 nM
[27] = target: Hepatocyte growth factor receptor (Homo sapiens) (UniProt P08581); conditions: Compound concentration 1000.0 nM
[28] = target: cGMP-dependent protein kinase 1 (Homo sapiens) (UniProt Q13976); conditions: Compound concentration 1000.0 nM
[29] = target: LIM domain kinase 2 (Homo sapiens) (UniProt P53671); conditions: Compound concentration 1000.0 nM
[30] = target: Ephrin type-A receptor 8 (Homo sapiens) (UniProt P29322); conditions: Compound concentration 1000.0 nM
[31] = target: Casein kinase I isoform alpha-like (Homo sapiens) (UniProt Q8N752); conditions: Compound concentration 1000.0 nM
[32] = target: Cyclin-dependent kinase 16 (Homo sapiens) (UniProt Q00536); conditions: Compound concentration 1000.0 nM
Cyclin-dependent kinase 16 (Homo sapiens), sequence (Q00536 whole entry): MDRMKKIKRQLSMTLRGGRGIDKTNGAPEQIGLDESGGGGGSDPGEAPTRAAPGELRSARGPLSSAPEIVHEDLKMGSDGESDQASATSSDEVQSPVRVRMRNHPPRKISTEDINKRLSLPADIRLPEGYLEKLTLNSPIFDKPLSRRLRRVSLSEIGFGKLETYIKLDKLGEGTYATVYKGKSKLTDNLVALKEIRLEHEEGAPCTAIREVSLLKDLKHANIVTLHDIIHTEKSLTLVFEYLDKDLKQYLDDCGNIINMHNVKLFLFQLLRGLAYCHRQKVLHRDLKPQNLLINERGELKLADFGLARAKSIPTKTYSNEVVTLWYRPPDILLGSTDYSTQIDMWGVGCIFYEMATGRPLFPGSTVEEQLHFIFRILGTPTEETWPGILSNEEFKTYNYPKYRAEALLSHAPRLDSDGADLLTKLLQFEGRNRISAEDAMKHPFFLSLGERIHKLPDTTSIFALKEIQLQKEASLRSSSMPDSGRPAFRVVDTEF

[33] = target: Beta-2 adrenergic receptor (Homo sapiens) (UniProt P07550); conditions: Compound concentration 10.0 uM
[34] = target: Tyrosine-protein kinase BTK (Homo sapiens) (UniProt Q06187); conditions: Compound concentration 1000.0 nM
[35] = system: Receptor-type tyrosine-protein kinase FLT3 (Homo sapiens), P36888 [UNDEFINED MUTATION]; conditions: Compound concentration 1000.0 nM
[36] = target: Megakaryocyte-associated tyrosine-protein kinase (Homo sapiens) (UniProt P42679); conditions: Compound concentration 1000.0 nM
[37] = target: Tyrosine-protein kinase ZAP-70 (Homo sapiens) (UniProt P43403); conditions: Compound concentration 1000.0 nM
[38] = target: Serine/threonine-protein kinase 16 (Homo sapiens) (UniProt O75716); conditions: Compound concentration 1000.0 nM
[39] = target: Serine/threonine-protein kinase 4 (Homo sapiens) (UniProt Q13043); conditions: Compound concentration 1000.0 nM
Serine/threonine-protein kinase 4 (Homo sapiens), sequence (Q13043 whole entry): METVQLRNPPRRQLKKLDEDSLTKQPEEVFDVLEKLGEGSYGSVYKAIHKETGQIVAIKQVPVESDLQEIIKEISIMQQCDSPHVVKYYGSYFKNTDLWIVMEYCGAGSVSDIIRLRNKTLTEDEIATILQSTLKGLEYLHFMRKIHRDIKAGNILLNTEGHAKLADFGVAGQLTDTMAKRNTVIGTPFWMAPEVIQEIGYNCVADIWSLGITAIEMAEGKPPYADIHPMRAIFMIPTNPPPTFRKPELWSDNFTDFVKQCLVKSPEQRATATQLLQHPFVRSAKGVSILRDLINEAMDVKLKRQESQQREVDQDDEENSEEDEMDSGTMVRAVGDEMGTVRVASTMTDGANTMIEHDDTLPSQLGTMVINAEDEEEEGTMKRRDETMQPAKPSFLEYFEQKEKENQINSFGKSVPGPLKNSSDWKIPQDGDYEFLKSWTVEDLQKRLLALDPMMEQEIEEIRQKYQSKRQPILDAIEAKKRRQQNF

[40] = target: Ephrin type-B receptor 3 (Homo sapiens) (UniProt P54753); conditions: Compound concentration 1000.0 nM
Ephrin type-B receptor 3 (Homo sapiens), sequence (P54753 whole entry): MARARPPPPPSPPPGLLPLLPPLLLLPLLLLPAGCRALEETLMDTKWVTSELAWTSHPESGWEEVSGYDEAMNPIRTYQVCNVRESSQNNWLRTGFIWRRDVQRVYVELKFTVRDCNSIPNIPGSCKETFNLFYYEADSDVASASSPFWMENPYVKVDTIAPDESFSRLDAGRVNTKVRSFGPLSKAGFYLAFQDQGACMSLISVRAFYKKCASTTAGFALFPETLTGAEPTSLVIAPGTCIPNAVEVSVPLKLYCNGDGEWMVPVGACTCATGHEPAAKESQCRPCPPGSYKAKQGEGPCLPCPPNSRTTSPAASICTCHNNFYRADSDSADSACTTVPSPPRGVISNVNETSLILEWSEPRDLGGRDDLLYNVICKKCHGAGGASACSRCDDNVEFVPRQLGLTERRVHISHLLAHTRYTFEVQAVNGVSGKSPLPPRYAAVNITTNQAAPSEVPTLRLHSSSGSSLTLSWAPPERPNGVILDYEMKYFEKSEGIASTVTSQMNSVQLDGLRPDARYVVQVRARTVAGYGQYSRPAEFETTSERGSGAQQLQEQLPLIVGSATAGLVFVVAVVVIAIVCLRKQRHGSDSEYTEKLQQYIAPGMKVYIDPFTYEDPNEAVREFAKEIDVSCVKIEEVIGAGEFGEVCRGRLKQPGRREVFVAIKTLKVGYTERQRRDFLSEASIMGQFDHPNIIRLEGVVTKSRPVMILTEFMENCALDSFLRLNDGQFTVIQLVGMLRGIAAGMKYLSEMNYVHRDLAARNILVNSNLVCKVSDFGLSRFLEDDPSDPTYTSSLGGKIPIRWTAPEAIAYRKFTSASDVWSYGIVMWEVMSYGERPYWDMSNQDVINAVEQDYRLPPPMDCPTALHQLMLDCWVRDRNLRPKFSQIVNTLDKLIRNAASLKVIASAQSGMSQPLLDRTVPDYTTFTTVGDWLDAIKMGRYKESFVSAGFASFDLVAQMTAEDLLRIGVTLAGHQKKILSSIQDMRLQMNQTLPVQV

[41] = target: Mitogen-activated protein kinase kinase kinase 13 (Homo sapiens) (UniProt O43283); conditions: Compound concentration 1000.0 nM
Mitogen-activated protein kinase kinase kinase 13 (Homo sapiens), sequence (O43283 whole entry): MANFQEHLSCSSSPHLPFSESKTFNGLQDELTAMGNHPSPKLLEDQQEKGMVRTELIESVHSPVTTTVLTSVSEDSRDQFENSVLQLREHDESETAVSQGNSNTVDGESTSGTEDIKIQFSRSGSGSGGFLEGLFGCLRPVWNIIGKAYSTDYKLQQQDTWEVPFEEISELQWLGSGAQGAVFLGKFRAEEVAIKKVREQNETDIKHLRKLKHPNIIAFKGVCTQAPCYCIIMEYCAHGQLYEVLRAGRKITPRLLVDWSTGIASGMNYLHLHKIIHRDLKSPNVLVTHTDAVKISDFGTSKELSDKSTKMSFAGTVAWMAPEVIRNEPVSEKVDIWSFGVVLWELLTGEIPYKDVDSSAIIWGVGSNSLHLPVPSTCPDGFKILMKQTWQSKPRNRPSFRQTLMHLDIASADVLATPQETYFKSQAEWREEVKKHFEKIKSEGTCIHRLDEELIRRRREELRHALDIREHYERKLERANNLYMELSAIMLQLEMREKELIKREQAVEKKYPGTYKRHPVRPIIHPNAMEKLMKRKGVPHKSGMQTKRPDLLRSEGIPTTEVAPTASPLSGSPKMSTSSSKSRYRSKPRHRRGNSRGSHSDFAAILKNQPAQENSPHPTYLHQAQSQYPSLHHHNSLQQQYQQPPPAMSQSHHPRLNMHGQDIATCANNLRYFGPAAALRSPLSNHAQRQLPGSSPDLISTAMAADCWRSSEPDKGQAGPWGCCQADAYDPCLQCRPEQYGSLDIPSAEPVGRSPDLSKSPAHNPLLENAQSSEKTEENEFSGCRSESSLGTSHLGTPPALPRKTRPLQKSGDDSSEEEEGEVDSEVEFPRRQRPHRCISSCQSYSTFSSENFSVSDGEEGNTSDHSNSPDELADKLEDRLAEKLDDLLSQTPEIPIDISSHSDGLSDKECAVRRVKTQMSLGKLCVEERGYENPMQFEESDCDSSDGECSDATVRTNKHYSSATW

[42] = system: Tyrosine-protein kinase ABL1 (Homo sapiens), P00519 [H396P]; conditions: Compound concentration 1000.0 nM
[43] = system: Epidermal growth factor receptor (Homo sapiens), P00533 [G719C]; conditions: Compound concentration 1000.0 nM
[44] = target: Tyrosine-protein kinase TXK (Homo sapiens) (UniProt P42681); conditions: Compound concentration 1000.0 nM

Mast/stem cell growth factor receptor Kit (Homo sapiens), P10721 [D816V], sequence (P10721 whole entry D816V): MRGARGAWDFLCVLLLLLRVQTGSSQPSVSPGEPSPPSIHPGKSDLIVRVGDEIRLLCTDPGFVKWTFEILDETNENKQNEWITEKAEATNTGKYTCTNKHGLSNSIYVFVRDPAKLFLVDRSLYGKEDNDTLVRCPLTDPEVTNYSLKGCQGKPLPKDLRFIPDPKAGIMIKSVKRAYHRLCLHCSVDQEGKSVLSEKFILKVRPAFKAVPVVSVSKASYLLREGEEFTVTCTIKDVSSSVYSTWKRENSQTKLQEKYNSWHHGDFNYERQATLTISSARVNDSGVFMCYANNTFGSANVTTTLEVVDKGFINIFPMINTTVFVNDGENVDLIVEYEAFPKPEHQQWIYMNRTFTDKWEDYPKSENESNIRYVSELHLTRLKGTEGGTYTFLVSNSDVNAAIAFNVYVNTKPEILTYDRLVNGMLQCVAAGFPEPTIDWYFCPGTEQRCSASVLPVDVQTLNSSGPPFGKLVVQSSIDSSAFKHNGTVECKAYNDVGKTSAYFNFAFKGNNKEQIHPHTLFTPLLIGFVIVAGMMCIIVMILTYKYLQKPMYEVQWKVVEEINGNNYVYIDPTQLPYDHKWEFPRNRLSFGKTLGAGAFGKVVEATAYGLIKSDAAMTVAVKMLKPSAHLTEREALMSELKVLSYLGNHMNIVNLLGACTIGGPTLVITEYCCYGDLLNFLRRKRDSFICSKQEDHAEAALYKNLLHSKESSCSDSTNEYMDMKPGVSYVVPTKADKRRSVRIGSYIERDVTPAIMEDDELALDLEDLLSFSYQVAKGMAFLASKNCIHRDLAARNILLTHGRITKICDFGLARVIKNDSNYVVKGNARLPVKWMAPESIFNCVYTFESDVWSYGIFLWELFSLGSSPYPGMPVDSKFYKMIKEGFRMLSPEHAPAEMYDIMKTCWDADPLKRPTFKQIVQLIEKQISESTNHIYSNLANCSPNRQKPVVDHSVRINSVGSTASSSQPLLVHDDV

Nc1cnc(N2CCc3cc(S(=O)(=O)Nc4c(F)cc(Cl)cc4F)cc(N4CCCC4=O)c32)nc1
inactive: residual activity [1] 100% | residual activity [2] 100% | residual activity [3] 100% | residual activity [4] 100% | residual activity [5] 100% | residual activity [6] 99% | residual activity [7] 61% | residual activity [8] 100% | residual activity [9] 99% | inhibition [10] 20.5% | residual activity [11] 100% | residual activity [12] 99% | residual activity [13] 100% | residual activity [14] 100% | residual activity [15] 100% | residual activity [16] 100% | residual activity [17] 81% | residual activity [18] 100% | residual activity [19] 86% | residual activity [20] 100% | residual activity [21] 89% | residual activity [22] 76% | residual activity [23] 100% | residual activity [24] 100% | inhibition [25] -1.21% | residual activity [26] 100% | residual activity [27] 69% | residual activity [28] 97% | residual activity [29] 100% | residual activity [30] 100% | residual activity [31] 100% | residual activity [32] 98% | inhibition [33] -3.08% | residual activity [34] 100% | residual activity [35] 92% | residual activity [36] 100% | residual activity [37] 85% | residual activity [38] 100% | residual activity [39] 100% | residual activity [40] 100% | residual activity [41] 100% | residual activity [42] 86% | residual activity [43] 100% | residual activity [44] 83%

Cn1nc(C(F)(F)F)cc1-c1cnc(N2CCc3cc(S(=O)(=O)Nc4c(F)cc(Cl)cc4F)cc(N4CCCC4=O)c32)nc1 [TP-020]
inactive: residual activity [1] 100% | residual activity [2] 100% | residual activity [3] 100% | residual activity [4] 100% | residual activity [5] 100% | residual activity [6] 85% | residual activity [7] 83% | residual activity [8] 82% | residual activity [9] 100% | inhibition [10] 7.89% | residual activity [11] 100% | residual activity [12] 100% | residual activity [13] 90% | residual activity [14] 94% | residual activity [15] 82% | residual activity [16] 79% | residual activity [17] 87% | residual activity [18] 94% | residual activity [19] 95% | residual activity [20] 90% | residual activity [21] 100% | residual activity [22] 100% | residual activity [23] 100% | residual activity [24] 100% | inhibition [25] 0.43% | residual activity [26] 94% | residual activity [27] 100% | residual activity [28] 87% | residual activity [29] 100% | residual activity [30] 65% | residual activity [31] 100% | residual activity [32] 77% | inhibition [33] 17.4% | residual activity [34] 85% | residual activity [35] 96% | residual activity [36] 91% | residual activity [37] 93% | residual activity [38] 92% | residual activity [39] 92% | residual activity [40] 95% | residual activity [41] 79% | residual activity [42] 87% | residual activity [43] 100% | residual activity [44] 100%
